Data published in patent US10947188B2, “Small molecule ferroptosis inducers” (THE TRUSTEES OF COLUMBIA UNIVERSITY IN THE CITY OF NEW YORK, priority 2016, dated 2021).
Where two headings read alike, the source gives them in different places.

Legend:
[1] = system: HT-1080; test: Modulatory profiling: Alamar Blue viability, lethal compound cotreated with death modulator (EC50, AUC); assay type: cell-based; design: AUC, modulator HT.3MA / AUC, modulator HT.ALLN / AUC HT.ATA / AUC HT.ActD / AUC HT.BHA / AUC HT.BHT / AUC HT.BocD / AUC HT.CHX / AUC HT.Co2+ / AUC HT.DPQ / AUC HT.EGTA / AUC HT.Lmim / AUC HT.NAD+ / AUC HT.Nec-1 / AUC HT.SP600125 / AUC HT.TLCK / AUC HT.U0126: unit not given beside the values; conditions: for AUC HT.ATA: HT-1080, modulator ATA; for AUC HT.ActD: HT-1080, modulator ActD; for AUC HT.BHA: HT-1080, modulator BHA; for AUC HT.BHT: HT-1080, modulator BHT; for AUC HT.BocD: HT-1080, modulator BocD; for AUC HT.CHX: HT-1080, modulator CHX; for AUC HT.Co2+: HT-1080, modulator Co2+; for AUC HT.CspA: HT-1080, modulator CspA; for AUC HT.DPQ: HT-1080, modulator DPQ; for AUC HT.Gd3+: HT-1080, modulator Gd3+; for AUC HT.LNAME: HT-1080, modulator LNAME; for AUC HT.Lmim: HT-1080, modulator Lmim; for AUC HT.NAD+: HT-1080, modulator NAD+; for AUC HT.NMMA: HT-1080, modulator NMMA; for HT.atoc (AUC) / HT.bCarotene (AUC) / HT.deferox (AUC) / HT.digoxin (AUC) / HT.trolox (AUC) / HT.zVAD (AUC): HT-1080; for HT.atoc (AUC): modulator atoc; for HT.bCarotene (AUC): modulator bCarotene; for HT.deferox (AUC): modulator deferox; for HT.digoxin (AUC): modulator digoxin; for HT.trolox (AUC): modulator trolox; for HT.zVAD (AUC): modulator zVAD; for AUC, modulator HT.3MA / AUC, modulator HT.ALLN: HT-1080 cells, modulatory profile value (AUC); for AUC, modulator HT.3MA: lethal compound cotreated with modulator 3MA; for AUC, modulator HT.ALLN: lethal compound cotreated with modulator ALLN; for AUC HT.BHA: reference of the scale not given here; for AUC HT.EGTA: reference of the scale not given here
[2] = system: BJeLR; test: as above; assay type: cell-based, human; design: AUC, modulator BJ.Gd3+ / AUC, modulator BJ.LNAME / AUC, modulator BJ.Lmin / AUC, modulator BJ.3MA / AUC, modulator BJ.ALLN / AUC, modulator BJ.Boc D / AUC, modulator BJ.CHX / AUC, modulator BJ.Co2+ / AUC, modulator BJ.Nec-1 / AUC, modulator BJ.Pepstatin / AUC, modulator BJ.TLCK / AUC, modulator BJ.atoc / AUC, modulator BJ.trolox / AUC, modulator BJ.zVAD: unit not given beside the values; conditions: BJeLR cells, modulatory profile value (AUC); for AUC, modulator BJ.3MA: lethal compound cotreated with modulator 3MA; for AUC, modulator BJ.ALLN: lethal compound cotreated with modulator ALLN; for AUC, modulator BJ.Boc D: lethal compound cotreated with modulator Boc D; for AUC, modulator BJ.CHX: lethal compound cotreated with modulator CHX; for AUC, modulator BJ.Co2+: lethal compound cotreated with modulator Co2+; for AUC, modulator BJ.DPQ: lethal compound cotreated with modulator DPQ; for AUC, modulator BJ.Gd3+: lethal compound cotreated with modulator Gd3+; for AUC, modulator BJ.LNAME: lethal compound cotreated with modulator LNAME; for AUC, modulator BJ.Lmin/NAD+: lethal compound cotreated with modulator Lmin/NAD+; for AUC, modulator BJ.Lmin: lethal compound cotreated with modulator Lmin; for AUC, modulator BJ.NAD+: lethal compound cotreated with modulator NAD+; for AUC, modulator BJ.NMMA: lethal compound cotreated with modulator NMMA; for AUC, modulator BJ.Nec-1: lethal compound cotreated with modulator Nec-1; for AUC, modulator BJ.Pepstatin: lethal compound cotreated with modulator Pepstatin; for AUC, modulator BJ.TLCK: lethal compound cotreated with modulator TLCK; for AUC, modulator BJ.atoc: lethal compound cotreated with modulator atoc; for AUC, modulator BJ.trolox: lethal compound cotreated with modulator trolox; for AUC, modulator BJ.zVAD: lethal compound cotreated with modulator zVAD; for AUC, modulator BJ.3MA: reference of the scale not given here; for AUC, modulator BJ.ALLN: reference of the scale not given here; for AUC, modulator BJ.Boc D: reference of the scale not given here; for AUC, modulator BJ.CHX: reference of the scale not given here; for AUC, modulator BJ.Co2+: reference of the scale not given here; for AUC, modulator BJ.DPQ: reference of the scale not given here; for AUC, modulator BJ.Gd3+: reference of the scale not given here; for AUC, modulator BJ.LNAME: reference of the scale not given here; for AUC, modulator BJ.NAD+: reference of the scale not given here; for AUC, modulator BJ.NMMA: reference of the scale not given here; for AUC, modulator BJ.Nec-1: reference of the scale not given here; for AUC, modulator BJ.Pepstatin: reference of the scale not given here; for AUC, modulator BJ.TLCK: reference of the scale not given here

SMILES: CCCS(=O)(=O)c1nnnn1-c1cccc(OC)c1 [CIL15]
- AUC HT.ATA [1]: −0.002809
- AUC HT.ActD [1]: 0.01242
- AUC HT.BHA [1]: −0.03993
- AUC HT.BHT [1]: −0.1489
- AUC HT.BocD [1]: 0.1021
- AUC HT.CHX [1]: 0.06342
- AUC HT.Co2+ [1]: 0.1397
- AUC HT.CspA [1]: −0.007032
- AUC HT.DPQ [1]: −0.02394
- AUC HT.EGTA ([1]; HT-1080, modulator EGTA): −0.0006158
- AUC HT.Gd3+ [1]: −0.03881
- AUC HT.LNAME [1]: 0.001309
- AUC HT.Lmim [1]: −0.04837
- AUC HT.NAD+ [1]: 0.01762
- AUC HT.NMMA [1]: −0.01943
- HT.atoc (AUC) [1]: 0.1224
- HT.bCarotene (AUC) [1]: −0.003906
- HT.deferox (AUC) [1]: 0.04237
- HT.digoxin (AUC) [1]: −0.01238
- HT.trolox (AUC) [1]: −0.02956
- HT.zVAD (AUC) [1]: −0.04682
- AUC, modulator HT.3MA [1]: 0.0263
- AUC, modulator HT.ALLN [1]: 0.0001245
- AUC, modulator BJ.3MA [2]: 0.02761
- AUC, modulator BJ.ALLN [2]: −0.06757
- AUC, modulator BJ.Boc D [2]: −0.05321
- AUC, modulator BJ.CHX [2]: 0.1287
- AUC, modulator BJ.Co2+ [2]: 0.0961
- AUC, modulator BJ.DPQ [2]: −0.01238
- AUC, modulator BJ.Gd3+ [2]: 0.02535
- AUC, modulator BJ.LNAME [2]: −0.02453
- AUC, modulator BJ.Lmin/NAD+ [2]: −0.01164
- AUC, modulator BJ.Lmin [2]: −0.0004619
- AUC, modulator BJ.NAD+ [2]: 0.01287
- AUC, modulator BJ.NMMA [2]: −0.03623
- AUC, modulator BJ.Nec-1 [2]: 0.02391
- AUC, modulator BJ.Pepstatin [2]: 0.0256
- AUC, modulator BJ.TLCK [2]: −0.005629
- AUC, modulator BJ.atoc [2]: −0.01149
- AUC, modulator BJ.trolox [2]: −0.01026
- AUC, modulator BJ.zVAD [2]: 0.01243

SMILES: COc1cccc(-n2nnnc2S(C)(=O)=O)c1 [CIL16]
- AUC HT.ATA [1]: 0.003965
- AUC HT.ActD [1]: 0.01875
- AUC HT.BHA [1]: −0.05937
- AUC HT.BHT [1]: −0.1721
- AUC HT.BocD [1]: 0.1414
- AUC HT.CHX [1]: 0.08543
- AUC HT.Co2+ [1]: 0.155
- AUC HT.CspA [1]: 0.008389
- AUC HT.DPQ [1]: −0.02205
- AUC HT.EGTA ([1]; HT-1080, modulator EGTA): −0.0002723
- AUC HT.Gd3+ [1]: −0.0407
- AUC HT.LNAME [1]: 0.01974
- AUC HT.Lmim [1]: −0.05546
- AUC HT.NAD+ [1]: 0.05126
- AUC HT.NMMA [1]: −0.03154
- HT.atoc (AUC) [1]: 0.1025
- HT.bCarotene (AUC) [1]: −0.01322
- HT.deferox (AUC) [1]: 0.05919
- HT.digoxin (AUC) [1]: −0.01884
- HT.trolox (AUC) [1]: −0.01524
- HT.zVAD (AUC) [1]: 0.005482
- AUC, modulator HT.3MA [1]: 0.02993
- AUC, modulator HT.ALLN [1]: −0.03286
- AUC, modulator BJ.3MA [2]: 0.05064
- AUC, modulator BJ.ALLN [2]: −0.03491
- AUC, modulator BJ.Boc D [2]: −0.04692
- AUC, modulator BJ.CHX [2]: 0.01221
- AUC, modulator BJ.Co2+ [2]: 0.07207
- AUC, modulator BJ.DPQ [2]: −0.01732
- AUC, modulator BJ.Gd3+ [2]: −0.02506
- AUC, modulator BJ.LNAME [2]: −0.01278
- AUC, modulator BJ.Lmin/NAD+ [2]: −0.05229
- AUC, modulator BJ.Lmin [2]: −0.02238
- AUC, modulator BJ.NAD+ [2]: −0.02177
- AUC, modulator BJ.NMMA [2]: −0.01938
- AUC, modulator BJ.Nec-1 [2]: 0.06903
- AUC, modulator BJ.Pepstatin [2]: 0.02481
- AUC, modulator BJ.TLCK [2]: −0.02516
- AUC, modulator BJ.atoc [2]: −0.03351
- AUC, modulator BJ.trolox [2]: 0.003689
- AUC, modulator BJ.zVAD [2]: −0.006166

SMILES: Cc1cccc(-n2ncc(Cl)c(Cl)c2=O)c1 [CIL22]
- AUC HT.EGTA [1]: −0.01254
- AUC HT.ATA [1]: 0.05908
- AUC HT.ActD [1]: −0.02402
- AUC HT.BHA [1]: 0.001925
- AUC HT.BHT [1]: −0.05238
- AUC HT.BocD [1]: 0.008628
- AUC HT.CHX [1]: 0.01938
- AUC HT.Co2+ [1]: −0.03478
- AUC HT.CspA [1]: −0.03611
- AUC HT.DPQ [1]: −0.00934
- AUC HT.Gd3+ [1]: −0.004534
- AUC HT.LNAME [1]: 0.04608
- AUC HT.Lmim [1]: 0.01659
- AUC HT.NAD+ [1]: 0.01014
- AUC HT.NMMA [1]: 0.01444
- HT.atoc (AUC) [1]: 0.04912
- HT.bCarotene (AUC) [1]: −0.01174
- HT.deferox (AUC) [1]: 0.06507
- HT.digoxin (AUC) [1]: 0.05675
- HT.trolox (AUC) [1]: −0.004921
- HT.zVAD (AUC) [1]: 0.02835
- AUC, modulator HT.3MA [1]: −0.01606
- AUC, modulator HT.ALLN [1]: 0.02849
- AUC, modulator BJ.3MA [2]: −0.04329
- AUC, modulator BJ.ALLN [2]: −0.03232
- AUC, modulator BJ.Boc D [2]: −0.0406
- AUC, modulator BJ.CHX [2]: 0.1136
- AUC, modulator BJ.Co2+ [2]: 0.07615
- AUC, modulator BJ.DPQ [2]: 0.005752
- AUC, modulator BJ.Gd3+ [2]: 0.005899
- AUC, modulator BJ.LNAME [2]: 0.0123
- AUC, modulator BJ.Lmin/NAD+ [2]: 0.07278
- AUC, modulator BJ.Lmin [2]: 0.002645
- AUC, modulator BJ.NAD+ [2]: −0.005902
- AUC, modulator BJ.NMMA [2]: −0.007412
- AUC, modulator BJ.Nec-1 [2]: −0.01633
- AUC, modulator BJ.Pepstatin [2]: 0.02724
- AUC, modulator BJ.TLCK [2]: −0.01321
- AUC, modulator BJ.atoc [2]: 0.01015
- AUC, modulator BJ.trolox [2]: 0.0184
- AUC, modulator BJ.zVAD [2]: 0.03093
